# Experimental data published in patent publication US12091701B2, “Screening method for candidate substances for active component to prevent or treat at least one disease selected from the group consisting of renal hypofunction, chronic kidney disease and kidney failure” (KARYDO THERAPEUTIX, INC., priority 2016, dated 2024).
# Assays:
# FGF23 in plasma = experiment: Measurement of concentration of FGF23 in plasma by ELISA method in HP model mice; type: in vivo, mice (C57BL/6N); details: mice on diet with high phosphorus content 4 weeks; 10 mg/kg intraperitoneally weekly, five times; vs physiological saline; p=0.049
# Method: The concentration of FGF23 in plasma was measured using an ELISA kit sold by KAINOS Laboratories, Inc. (TCY4000). A plasma sample cryopreserved in a freezer was thawed on ice, and the sample undiluted or the sample diluted 5-fold with standard solution 1 (FGF-23 concentration, 0 pg/ml) supplied with the kit was used for measurement.
# 50 μl of the diluted sample or a sample for a calibration curve was added to each well of an ELISA plate supplied with the kit. The plate was sealed, followed by stirring and incubating at room temperature for 2 hours. After the two hours, the sample in each well was aspirated and discarded. 300 μl of a wash solution supplied with the kit was then added to each well, and the wash solution was removed. This operation was performed four times. After the wash solution was thoroughly removed, 100 μl of an enzyme-labeled antibody solution (FGF-23 Conjugate) supplied with the kit was added to each well, and the plate was sealed, followed by stirring and incubating at room temperature for 1 hour. After the 1 hour, the sample in each well was aspirated and discarded. […] Absorbance at 450 nm was then measured with an absorbance microplate reader (Multiskan GO, Thermo Fisher Scientific Inc.). The concentration of FGF23 in plasma was calculated by making a calibration curve from the measurement result of recombinant FGF23 supplied with the kit.
# Fgg gene (kidneys) = experiment: qRT-PCR of Fgg gene (fibrinogen) in the kidneys of HP model mice given soluble Oscar-Fc fusion protein; type: in vivo, mice (C57BL/6N); details: HP4W_sOscar vs HP4W_NS; diet with high phosphorus content 4 weeks; p=0.00071; n=5 to 6
# From the text: (§1) Subsequently, the mixture was vortexed vigorously for 15 seconds.
# To evaluate the effect of the soluble Oscar-Fc fusion protein on kidney function, the expression of a kidney function marker was confirmed in the kidneys of HP4W_NS, HP4W_sOscar, and LP4W of Reference Example 2.
# FGF23 gene (the skull) = experiment: qRT-PCR of FGF23 in the skull of HP model mice given soluble human Oscar-Fc fusion protein; type: in vivo, mice (C57BL/6N); details: mice on diet with high phosphorus content (2% inorganic phosphorus) 4 weeks; 10 mg/kg intraperitoneally weekly, five times; vs physiological saline; normalized to Maea; p=0.026; n=5 to 6
# From the text: as §1
# [1] = test system: PRP genes (Prb1, Prh1, Prp2, and Prpmp5) (the parotid glands); details: mice on diet with high phosphorus content 4 weeks; 10 mg/kg intraperitoneally weekly, five times; vs physiological saline; n=5 to 6
# Method: After the wet weights of the collected organs and tissue were measured, the organs and tissue were rapidly frozen in liquid nitrogen and stored at −80° C.
substance,measurement,setting,value
"soluble human Oscar-Fc fusion protein: Soluble human Oscar-Fc fusion protein of SEQ ID NO: 2 (human Oscar sequence, hinge, human IgG1); inhibits ligand binding to Oscar",increase in the concentration of FGF23 in plasma (ELISA),FGF23 in plasma,statistically significantly suppressed
same,expression of the Fgg gene in the kidneys (qRT-PCR),Fgg gene (kidneys),significantly suppressed
same,expression of FGF23 in the skull (qRT-PCR),FGF23 gene (the skull),suppressed
same,"expression of PRP genes (Prb1, Prh1, Prp2, and Prpmp5) in the parotid glands (qRT-PCR)",[1],suppressed
